Patent US12599136B2, “Substituted isophthalic acid diamides and their use as herbicides” (Bayer Aktiengesellschaft, priority 2020, dated 2026)

Legend:
Format in all cases: in vivo
[1] = tested on: Stellaria media; assay: Pre-emergence herbicidal action against STEME
Method in brief: (§1)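 Greenhouse pots of sandy loam held seeds covered with soil, onto which the compound was applied before emergence. An aqueous suspension or emulsion of WP or EC was used at 600 to 800 l/ha with 0.2% wetting agent. Percent damage was judged visually at 3 weeks.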

[2] = tested on: Viola tricolor; assay: Post-emergence herbicidal action against VIOTR
Method in brief: (§2)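 Foliar application at one-leaf stage of formulated test compounds, aqueous spray at 600–800 l/ha with 0.2% wetting agent. Greenhouse, optimal conditions, ~3 weeks; damage scored visually in % relative to untreated plants.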

[3] = tested on: Cyperus esculentus; assay: Pre-emergence herbicidal action against CYPES; conditions: visual score after 3 weeks vs untreated controls
Method in brief: as §1

[4] = tested on: Pharbitis purpurea; assay: Post-emergence herbicidal action against PHBPU; conditions: visual assessment about 3 weeks after treatment
Method in brief: as §2

[5] = tested on: Cyperus esculentus; assay: Post-emergence herbicidal action against CYPES; conditions: visual assessment about 3 weeks after treatment
Method in brief: as §2

[6] = tested on: Alopecurus myosuroides; assay: Post-emergence herbicidal action against ALOMY
Method in brief: as §2

[7] = tested on: Echinochloa crus-galli; assay: Pre-emergence herbicidal action against ECHCG; conditions: visual score after 3 weeks vs untreated controls
Method in brief: as §1

[8] = tested on: Amaranthus retroflexus; assay: Pre-emergence herbicidal action against AMARE; conditions: visual score after 3 weeks vs untreated controls
Method in brief: as §1

[9] = tested on: Stellaria media; assay: Post-emergence herbicidal action against STEME; conditions: visual assessment about 3 weeks after treatment
Method in brief: as §2

[10] = tested on: Abutilon theophrasti; assay: Pre-emergence herbicidal action against ABUTH; conditions: visual score after 3 weeks vs untreated controls
Method in brief: as §1

[11] = tested on: Lolium rigidum; assay: Post-emergence herbicidal action against LOLRI; conditions: 80 g/ha
Method in brief: as §2

[12] = tested on: Pharbitis purpurea; assay: Pre-emergence herbicidal action against PHBPU; conditions: 320 g/ha; visual score after 3 weeks vs untreated controls
Method in brief: as §1

[13] = tested on: Viola tricolor; assay: Pre-emergence herbicidal action against VIOTR
Method in brief: as §1

[14] = tested on: Amaranthus retroflexus; assay: Post-emergence herbicidal action against AMARE; conditions: visual assessment about 3 weeks after treatment
Method in brief: as §2

[15] = tested on: Setaria viridis; assay: Post-emergence herbicidal action against SETVI; conditions: visual assessment about 3 weeks after treatment
Method in brief: as §2

[16] = tested on: Veronica persica; assay: Pre-emergence herbicidal action against VERPE
Method in brief: as §1

[17] = tested on: Avena fatua; assay: Pre-emergence herbicidal action against AVEFA; conditions: visual score after 3 weeks vs untreated controls
Method in brief: as §1

[18] = tested on: Veronica persica; assay: Post-emergence herbicidal action against VERPE; conditions: visual assessment about 3 weeks after treatment
Method in brief: as §2

[19] = tested on: Lolium rigidum; assay: Pre-emergence herbicidal action against LOLRI; conditions: 320 g/ha
Method in brief: as §1

[20] = tested on: Matricaria inodora; assay: Post-emergence herbicidal action against MATIN; conditions: visual assessment about 3 weeks after treatment
Method in brief: as §2

[21] = tested on: Polygonum convolvulus; assay: Post-emergence herbicidal action against POLCO; conditions: 80 g/ha, visual assessment about 3 weeks after treatment
Method in brief: as §2

[22] = tested on: Matricaria inodora; assay: Pre-emergence herbicidal action against MATIN; conditions: visual score after 3 weeks vs untreated controls
Method in brief: as §1

[23] = tested on: Hordeum murinum; assay: Pre-emergence herbicidal action against HORMU; conditions: 320 g/ha; visual score after 3 weeks vs untreated controls
Method in brief: as §1

[24] = tested on: Alopecurus myosuroides; assay: Pre-emergence herbicidal action against ALOMY; conditions: visual score after 3 weeks vs untreated controls
Method in brief: as §1

[25] = tested on: Echinochloa crus-galli; assay: Post-emergence herbicidal action against ECHCG; conditions: visual assessment about 3 weeks after treatment
Method in brief: as §2

[26] = tested on: Hordeum murinum; assay: Post-emergence herbicidal action against HORMU
Method in brief: as §2

[27] = tested on: Polygonum convolvulus; assay: Pre-emergence herbicidal action against POLCO; conditions: 320 g/ha
Method in brief: as §1

[28] = tested on: Avena fatua; assay: Post-emergence herbicidal action against AVEFA; conditions: visual assessment about 3 weeks after treatment
Method in brief: as §2

[29] = tested on: Abutilon theophrasti; assay: Post-emergence herbicidal action against ABUTH
Method in brief: as §2

[30] = tested on: Setaria viridis; assay: Pre-emergence herbicidal action against SETVI
Method in brief: as §1

## CCn1nnnc1NC(=O)c1ccc(C(F)(F)F)c(C(=O)N(C)CC2CC2)c1Cl [Example 2-126]
[1]; 20 g/ha
  Pre-emergence action against STEME: 80%
[1]; 320 g/ha
  Pre-emergence action against STEME: 90%
[2]; 5 g/ha
  Post-emergence action against VIOTR in %: 100%
[2]; 20 g/ha
  Post-emergence action against VIOTR in %: 100%
[2]; 80 g/ha
  Post-emergence action against VIOTR in %: 100%
[3]; 80 g/ha
  Pre-emergence action against CYPES: 80%
[3]; 320 g/ha
  Pre-emergence action against CYPES: 90%
[4]; 5 g/ha
  Post-emergence action against PHBPU in %: 90%
[4]; 20 g/ha
  Post-emergence action against PHBPU in %: 100%
[4]; 80 g/ha
  Post-emergence action against PHBPU in %: 100%
[5]; 20 g/ha
  Post-emergence action against CYPES in %: 80%
[5]; 80 g/ha
  Post-emergence action against CYPES in %: 90%
[6]; 5 g/ha
  Post-emergence action against ALOMY: 80%
[6]; 20 g/ha
  Post-emergence action against ALOMY: 90%
[6]; 80 g/ha
  Post-emergence action against ALOMY: 100%
[7]; 80 g/ha
  Pre-emergence action against ECHCG: 80%
[7]; 320 g/ha
  Pre-emergence action against ECHCG: 100%
[8]; 20 g/ha
  Pre-emergence action against AMARE: 90%
[8]; 80 g/ha
  Pre-emergence action against AMARE: 100%
[8]; 320 g/ha
  Pre-emergence action against AMARE: 100%
[9]; 5 g/ha
  Post-emergence action against STEME in %: 100%
[9]; 20 g/ha
  Post-emergence action against STEME in %: 100%
[9]; 80 g/ha
  Post-emergence action against STEME in %: 100%
[10]; 20 g/ha
  Pre-emergence action against ABUTH: 100%
[10]; 80 g/ha
  Pre-emergence action against ABUTH: 100%
[10]; Dosage column 320 g/ha (heading prints 3200 g/ha)
  Pre-emergence action against ABUTH: 100%
[11]
  Post-emergence action against LOLRI in %: 80%
[12]
  Pre-emergence action against PHBPU: 100%
[13]; 20 g/ha
  Pre-emergence action against VIOTR: 80%
[13]; 80 g/ha
  Pre-emergence action against VIOTR: 100%
[13]; 320 g/ha
  Pre-emergence action against VIOTR: 100%
[14]; 5 g/ha
  Post-emergence action against AMARE in %: 100%
[14]; 20 g/ha
  Post-emergence action against AMARE in %: 100%
[14]; 80 g/ha
  Post-emergence action against AMARE in %: 100%
[15]; 5 g/ha
  Post-emergence action against SETVI in %: 100%
[15]; 20 g/ha
  Post-emergence action against SETVI in %: 100%
[15]; 80 g/ha
  Post-emergence action against SETVI in %: 100%
[16]; 80 g/ha
  Pre-emergence action against VERPE: 80%
[16]; 320 g/ha
  Pre-emergence action against VERPE: 90%
[17]; 80 g/ha
  Pre-emergence action against AVEFA: 80%
[17]; 320 g/ha
  Pre-emergence action against AVEFA: 100%
[18]; 20 g/ha
  Post-emergence action against VERPE in %: 80%
[18]; 80 g/ha
  Post-emergence action against VERPE in %: 90%
[19]
  Pre-emergence action against LOLRI: 90%
[20]; 5 g/ha
  Post-emergence action against MATIN in %: 80%
[20]; 20 g/ha
  Post-emergence action against MATIN in %: 100%
[20]; 80 g/ha
  Post-emergence action against MATIN in %: 100%
[21]
  Post-emergence action against POLCO in %: 80%
[22]; 20 g/ha
  Pre-emergence action against MATIN: 80%
[22]; 80 g/ha
  Pre-emergence action against MATIN: 90%
[22]; 320 g/ha
  Pre-emergence action against MATIN: 100%
[23]
  Pre-emergence action against HORMU: 100%
[24]; 80 g/ha
  Pre-emergence action against ALOMY: 80%
[24]; 320 g/ha
  Pre-emergence action against ALOMY: 100%
[25]; 5 g/ha
  Post-emergence action against ECHCG in %: 90%
[25]; 20 g/ha
  Post-emergence action against ECHCG in %: 100%
[25]; 80 g/ha
  Post-emergence action against ECHCG in %: 100%
[26]; 5 g/ha
  Post-emergence action against HORMU in %: 80%
[26]; 20 g/ha
  Post-emergence action against HORMU in %: 90%
[26]; 80 g/ha
  Post-emergence action against HORMU in %: 100%
[27]
  Pre-emergence action against POLCO: 100%
[28]; 20 g/ha
  Post-emergence action against AVEFA in %: 100%
[28]; 80 g/ha
  Post-emergence action against AVEFA in %: 100%
[29]; 5 g/ha
  Post-emergence action against ABUTH: 80%
[29]; 20 g/ha
  Post-emergence action against ABUTH: 100%
[29]; 80 g/ha
  Post-emergence action against ABUTH: 100%
[30]; 80 g/ha
  Pre-emergence action against SETVI: 100%
[30]; 320 g/ha
  Pre-emergence action against SETVI: 100%
